# Experimental data taken from publication PMC4513132, “Oxidation of Monolignols by Members of the Berberine Bridge Enzyme Family Suggests a Role in Plant Cell Wall Metabolism” (The Journal of Biological Chemistry, 2015).
# Key:
# AtBBE-like 15 [1] = target: T1, AtBBE-like 15 (Arabidopsis thaliana, UniProt O64743); test: Thermofluor, SYPRO Orange; assay type: binding; details: 50 mM MES pH 7.0, 2 mg/ml ligand
# T1 construct: gene MEE23; secreted by Komagataella pastoris (codon-optimised synthetic gene); crystallised as 27-532; bicovalent FAD (His-115, Cys-179)
# AtBBE-like 15 [2] = target: T1, AtBBE-like 15; test: X-ray crystal structure, […] Å; assay type: binding; details: covalent (bicovalent: His-115 to 8α-methyl, Cys-179 to C6)
# AtBBE-like 13 = target: T2, AtBBE-like 13 (Arabidopsis thaliana, UniProt Q93ZA3); test: stopped-flow reductive half-reaction, flavin absorbance at […] nm; assay type: biochemical; details: 50 mM potassium phosphate pH 7.0, 25 °C, anoxic
# T2 construct: gene At1g30760; isolated from Komagataella pastoris cells (codon-optimised synthetic gene)
# AtBBE-like 15 [3] = target: T1, AtBBE-like 15; test: as above; assay type: biochemical; details: 50 mM potassium phosphate pH 7.0, 25 °C, anoxic
# T1 sequence (O64743 27-532): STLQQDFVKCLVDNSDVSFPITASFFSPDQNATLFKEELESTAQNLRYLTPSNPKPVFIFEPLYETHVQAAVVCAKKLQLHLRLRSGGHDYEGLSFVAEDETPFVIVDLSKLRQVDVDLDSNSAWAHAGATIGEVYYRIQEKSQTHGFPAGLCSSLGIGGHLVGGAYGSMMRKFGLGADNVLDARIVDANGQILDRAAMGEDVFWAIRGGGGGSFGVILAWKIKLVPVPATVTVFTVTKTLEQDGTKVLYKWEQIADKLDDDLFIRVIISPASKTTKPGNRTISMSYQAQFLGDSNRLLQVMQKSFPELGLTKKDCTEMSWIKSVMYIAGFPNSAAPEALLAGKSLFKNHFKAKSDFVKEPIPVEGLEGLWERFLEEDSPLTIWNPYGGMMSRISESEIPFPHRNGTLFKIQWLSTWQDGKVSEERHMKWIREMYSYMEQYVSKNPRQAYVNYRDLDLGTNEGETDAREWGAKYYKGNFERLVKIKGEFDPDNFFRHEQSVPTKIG
# T2 sequence (Q93ZA3 31-534): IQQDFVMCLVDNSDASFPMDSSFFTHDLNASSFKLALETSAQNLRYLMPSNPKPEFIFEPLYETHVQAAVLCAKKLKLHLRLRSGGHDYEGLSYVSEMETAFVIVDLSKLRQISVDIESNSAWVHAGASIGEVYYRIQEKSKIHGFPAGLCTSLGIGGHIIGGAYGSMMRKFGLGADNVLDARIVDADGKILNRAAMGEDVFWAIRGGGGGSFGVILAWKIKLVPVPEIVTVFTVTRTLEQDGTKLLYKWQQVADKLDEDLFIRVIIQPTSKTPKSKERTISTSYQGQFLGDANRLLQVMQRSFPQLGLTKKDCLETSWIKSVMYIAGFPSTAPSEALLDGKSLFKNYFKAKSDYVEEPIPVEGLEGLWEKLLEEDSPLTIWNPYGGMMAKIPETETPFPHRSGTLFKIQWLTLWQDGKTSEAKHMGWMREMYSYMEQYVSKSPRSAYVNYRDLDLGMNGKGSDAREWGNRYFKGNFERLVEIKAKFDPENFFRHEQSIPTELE
smiles,measurement,setting,value
OC[C@H]1OC(O)[C@H](O)[C@@H](O)[C@@H]1O (stereo partly drawn) [D-glucose],increase of the melting temperature,AtBBE-like 15 [1],"monosaccharides, such as D-glucose, had such a profound effect on the protein's thermal stability"
Cc1cc2nc3c(=O)[nH]c(=O)nc-3n(C[C@H](O)[C@H](O)[C@H](O)COP(=O)(O)OP(=O)(O)OC[C@H]3O[C@@H](n4cnc5c(N)ncnc54)[C@H](O)[C@@H]3O)c2cc1C [FAD],"X-ray crystal structure, 2.1 Å",AtBBE-like 15 [2],The FAD cofactor is bicovalently linked to the peptide chain
COc1cc(/C=C/CO)ccc1O[C@@H]1O[C@H](CO)[C@@H](O)[C@H](O)[C@H]1O [coniferin],Kd,AtBBE-like 13,1860 ± 624 µM
same,Kd,AtBBE-like 15 [3],660 ± 100 µM
OC/C=C/c1ccc(O)cc1 [p-coumaryl alcohol],Kd,AtBBE-like 13,867 ± 123 µM
same,Kd,AtBBE-like 15 [3],700 ± 120 µM
